Results as given in patent US20030194750A1, “Methods for treatment of diseases where GSK 3-beta is desired, and methods to identify compounds usefule for that” (priority 2002, published 2003).
Where two headings read alike, the source gives them in different places.

What was measured:
[1] = target: T1, GST-cGB-PDE5 fusion protein (Homo sapiens, UniProt O76074); assay: cGMP binding assay with GST-cGB-PDE5 fusion protein; conditions: for competition with cGMP binding at high concentration: 100 μM compound vs cGMP 2 μM
T1 construct: made in house; host or cells: E. coli BL21 (DE3)
Protocol: 5′-3′, Inc. kits for total RNA followed by oligo (dT) column purification of mRNA are used with HT-29 cells. […] It is then cloned into pGEX-5X-3 glutathione-S-transferase (GST) fusion vector (Pharmacia Biotech) with tac promoter, and EcoRI and XhoI cut sites. The fusion vector is then transfected into E. Coli BL21 (DE3) bacteria (Invitrogen). The transfected BL21 bacteria is grown to log phase, and then IPTG is added as an inducer. The induction is carried at 20° C. for 24 hrs. The bacteria are harvested and lysed. The soluble cell lysate is incubated with GSH conjugated Sepharose 4B (GSH-Sepharose 4B). The GST-cGB-PDE5 fusion protein can bind to the GSH-Sepharose beads, and the other proteins are washed off from beads with excessive cold PBS.
Then, the mixture is transferred to Brandel MB-24 cell harvester with GF/B as the filter membrane followed by 2 washes with 10 mL of cold 5 mM potassium buffer( pH 6.8). The membranes are then cut out and transferred to scintillation vials followed by the addition of 1 mL of H2O and 6 mL of Ready Safe™ liquid scintillation cocktail to each vial. The vials are counted on a Beckman LS 6500 scintillation counter.
The quenching by filter membrane or other debris are also calibrated.

native bovine PDE5 = native bovine PDE5 (Bos taurus, UniProt Q28156); conditions: read-out: Kd of cGMP binding; cited from earlier work
GSK3β = assay: Western blot of GSK3β-phospho-ser9 in SW480 cells; assay type: cell-based, human; conditions: various concentrations, 48 hours, vs 0 concentration
Protocol: (§1) 50 μg protein/lane were analyzed by Western blot analysis using specific anti-PKG1β and anti-GSK3β-phospho-ser9 antibodies.

PKG1β = assay: Western blot of PKG1β in SW480 cells; assay type: cell-based, human; conditions: various concentrations, 48 hours
Protocol: as §1

PKG = PKG activity assay on lysates of drug-treated SW480 colon cancer cells (32P phosphorylation of PDE5/GST substrate); assay type: cell-based, human; conditions: SW480 cells treated 48 hrs; exisulind 200, 400, 600 μM, E4021 0.1, 1, 10 μM; assay with and without added cGMP
Protocol: A compound that inhibits all these types of PDE is desirable, accordingly. Below, we provide examples of such PDE-inhibiting compounds.
SW 480 is known to contain the APC mutation. About 5 million SW480 cells in RPMI 5% serum are added to each of 8 dishes:
2-10 cm dishes - - - 30 μL DMSO vehicle control (without drug),
3-10 cm dishes - - - 200 μM, 400 μM, 600 μM exisulind in DMSO, and
The dishes are incubated for 48 hrs at 37° C. in 5% CO2 incubator.
The liquid media are aspirated from the dishes (the cells will attach themselves to the dishes). The attached cells are washed in each dish with cold PBS, and 200 μL cell lysis buffer (i.e., 50 mM Tris-HCl, 1% NP-40, 150 mM NaCl, 1 mM EDTA, 1 mM Na3VO4, 1 mM NaF, 500 μM IBMX with proteinase inhibitors) is added to each dish. Immediately after the cell lysis buffer is added, the lysed cells are collected by scraping the cells off each dish. The cell lysate from each dish is transferred to a microfuge tube, and the microfuge tubes are incubated at 4° C. for 15 minutes while gently agitating the microfuge tubes to allow the cells to lyse completely. […]
For each control or drug cell lysate sample to be evaluated, the reaction is started by adding phosphorylation buffer containing 10 μCi ^32P-γ-ATP solution (200 μM ATP, 4.5 mM MgCl; 5 mM KH2PO4; 5 mM K2HPO4;) to each mixture. […]

T1 sequence (O76074 46-539 limits assumed): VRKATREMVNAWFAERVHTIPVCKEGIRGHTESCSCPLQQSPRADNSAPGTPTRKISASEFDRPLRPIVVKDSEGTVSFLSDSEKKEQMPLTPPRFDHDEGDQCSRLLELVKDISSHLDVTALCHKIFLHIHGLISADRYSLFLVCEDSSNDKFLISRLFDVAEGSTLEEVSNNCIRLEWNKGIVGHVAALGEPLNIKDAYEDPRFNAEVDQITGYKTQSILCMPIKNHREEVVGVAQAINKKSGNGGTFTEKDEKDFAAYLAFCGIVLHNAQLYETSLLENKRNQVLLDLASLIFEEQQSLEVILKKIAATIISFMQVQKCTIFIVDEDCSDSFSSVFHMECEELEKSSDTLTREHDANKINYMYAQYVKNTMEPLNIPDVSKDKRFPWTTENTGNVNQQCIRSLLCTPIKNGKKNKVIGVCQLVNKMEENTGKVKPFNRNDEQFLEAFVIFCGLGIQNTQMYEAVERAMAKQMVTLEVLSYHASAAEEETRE

## CCCOc1ccccc1-c1nc2nn[nH]c2c(=O)[nH]1 [zaprinast]
[1]; 3H-cGMP 2 μM, 22° C., 1 hour
  competition with cGMP for the cGMP binding sites: None of the PDE5 inhibitors showed any competition with cGMP in binding

## CCCCOC1C2OP(=O)(O)OCC2OC1n1cnc2c(N)ncnc21 (stereo not shown) [2′-O-butyl-cAMP]
[1]; 3H-cGMP 2 μM, 22° C., 1 hour
  competition with cGMP for the cGMP binding sites: did not compete with cGMP in binding

## Nc1ncnc2c1ncn2[C@@H]1O[C@@H]2COP(=O)(O)O[C@H]2[C@H]1O [Cyclic AMP]
[1]
  competition with cGMP for the cGMP binding sites: did not compete with cGMP in binding

## Nc1nc2c(nc(Br)n2[C@@H]2O[C@@H]3COP(=O)(O)O[C@H]3[C@H]2O)c(=O)[nH]1 [Example 8-bromo-cGMP, 8-bromo-cGMP]
[1]
  competition with cGMP binding at high concentration: can partially compete with cGMP

## Nc1nc2c(ncn2[C@@H]2O[C@@H]3COP(=O)(O)O[C@H]3[C@H]2O)c(=O)[nH]1 [cGMP, cyclic 3′,5′-guanosine monophosphate]
Native bovine PDE5
  Kd: 1300 nM
[1]
  binding of cGMP to the fusion protein: specifically bound to GST-cGB-PDE5 protein
[1]; read-out: Kd of cGMP binding, two cGMP binding sites
  Kd: 1600 ± 200 nM

## COc1cc(/C=C2/C(C)=C(CC(=O)NCc3ccccc3)c3cc(F)ccc32)cc(OC)c1OC [Compound A, 1H-indene-3-acetamide, 5-fluoro-2-methyl-N-(phenylmethyl)-1-[(3,4,5-trimethoxyphenyl)methylene]-, (1Z)]
GSK3β
  GSK3β inactivation by Ser9 phosphorylation: inactivated in vivo by phosphorylation of its Ser9
PKG1β
  PKG1 induction: PKG1 induction in a dose-dependent manner

## O=C([O-])C1CCN(c2nc(NCc3ccc4c(c3)OCO4)c3cc(Cl)ccc3n2)CC1.[Na+] [Example E4021]
PKG
  PKG activity relative to control: do not exhibit PKG activation relative to control
[1]; 3H-cGMP 2 μM, 22° C., 1 hour
  competition with cGMP for the cGMP binding sites: None of the PDE5 inhibitors showed any competition with cGMP in binding

## O=c1ccn([C@@H]2O[C@@H]3COP(=O)(O)O[C@H]3[C@H]2O)c(=O)[nH]1 [cUMP, cyclic UMP]
[1]; 3H-cGMP 2 μM, 22° C., 1 hour
  competition with cGMP for the cGMP binding sites: did not compete with cGMP in binding

## CCCCOC1C2OP(=O)(O)OCC2OC1n1cnc2c(=O)[nH]c(N)nc21 (stereo not shown) [2′-O-butyl-cGMP]
[1]; 3H-cGMP 2 μM, 22° C., 1 hour
  competition with cGMP for the cGMP binding sites: did not compete with cGMP in binding

## O=c1[nH]cnc2c1ncn2[C@@H]1O[C@@H]2COP(=O)(O)O[C@H]2[C@H]1O [Cyclic IMP]
[1]
  competition with cGMP binding at high concentration: can partially compete with cGMP

## Nc1ccn([C@@H]2O[C@@H]3COP(=O)(O)O[C@H]3[C@H]2O)c(=O)n1 [cCMP, cyclic CMP]
[1]; 3H-cGMP 2 μM, 22° C., 1 hour
  competition with cGMP for the cGMP binding sites: did not compete with cGMP in binding

## CSc1ccc(/C=C2/C(C)=C(CC(=O)O)c3cc(F)ccc32)cc1 [Sulindac sulfide]
[1]; 3H-cGMP 2 μM, 22° C., 1 hour
  competition with cGMP for the cGMP binding sites: None of the PDE5 inhibitors showed any competition with cGMP in binding
